# Measurements published in patent US8735425B2, “Tetrahydroisoquinoline derivative” (Daiichi Sankyo Company, Limited, priority 2008, dated 2014).
# Assays:
# DGAT1 enzyme = target: T1, DGAT1 enzyme (Homo sapiens, UniProt O75907); test: DGAT1 inhibitory activity test; assay type: biochemical; conditions: test compound concentration of 0.05 μg/ml; read-out: Inhibitory Rate
# T1 construct: made in house
# T1 sequence (O75907 1-488): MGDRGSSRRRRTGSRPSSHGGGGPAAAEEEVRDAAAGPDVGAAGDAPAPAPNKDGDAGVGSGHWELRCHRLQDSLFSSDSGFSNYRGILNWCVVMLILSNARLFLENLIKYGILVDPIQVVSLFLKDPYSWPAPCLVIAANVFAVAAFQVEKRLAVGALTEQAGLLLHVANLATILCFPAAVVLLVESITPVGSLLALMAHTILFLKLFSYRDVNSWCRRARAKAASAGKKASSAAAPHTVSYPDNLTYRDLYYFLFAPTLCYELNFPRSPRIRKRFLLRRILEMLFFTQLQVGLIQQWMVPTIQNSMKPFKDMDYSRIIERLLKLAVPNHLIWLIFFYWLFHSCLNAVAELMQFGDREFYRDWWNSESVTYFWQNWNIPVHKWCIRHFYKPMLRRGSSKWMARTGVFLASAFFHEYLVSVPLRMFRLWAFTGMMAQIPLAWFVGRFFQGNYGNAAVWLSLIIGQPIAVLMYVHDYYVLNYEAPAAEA
# How it was run: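 Reaction at 23° C for 30 min in 175 mM Tris-HCl pH 8.0, 8 mM MgCl2, 1 mg/ml BSA, 0.5% Triton X-100 with 0.3 mM 1,2-dioleoyl-sn-glycerol and 10 μM [14C]-oleoyl-CoA. Triglyceride extracted into heptane, separated by TLC, radioactivity quantified; % inhibition versus vehicle control, 0-min background subtracted.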
# Male C57BL/6N mice = test: Triglyceride absorption suppression after fat loading (in vivo DGAT1 inhibitory effect); conditions: Mus musculus, po; dose of 10 mg/kg or lower, orally administered, mice fasted overnight, plasma triglyceride after fat loading; read-out: Triglyceride absorption suppressive activity
# Procedure: The DGAT1 enzyme is important for the digestion and absorption of triglycerides, and the inhibition of DGAT1 in the small intestine suppresses the absorption of triglycerides. The in vivo activity of its DGAT1 inhibitory effect was evaluated with the suppressed absorption of triglycerides after fat loading as an index. Male C57BL/6N mice (7-12 weeks old, body weight: 17-25 g, Charles River Laboratories Japan Inc.) fasted overnight were assigned to Vehicle group 1, Vehicle group 2, and each test compound group, to which a vehicle (0.5% methylcellulose) or each test compound (1 to 10 mg/kg) suspended in vehicle was orally administered (5 mL/kg). After a given time, a lipoprotein lipase inhibitor (Pluronic-F127: Sigma-Aldrich Corp., 1 g/kg, 20% by weight dissolved in saline) was intraperitoneally administered (5 mL/kg) to each group. Immediately thereafter, distilled water for the Vehicle group 1 or a 20% fat-containing emulation (Intralipid 20%: TERUMO CORP., Japan) for the Vehicle group 2 and the compound groups were orally administered thereto (0.2 mL/mouse). After a given time of 1 to 4 hours after administration, blood was collected from the tail vein or the right ventricle, and plasma was immediately separated and collected. Then, the triglyceride concentration in plasma was measured using a commercially available kit (Triglyceride E-Test Wako: Wako Pure Chemical Industries, Ltd.). In this method, the administration of the lipoprotein lipase inhibitor suppresses the hydrolysis of triglycerides in the blood such that the triglycerides are accumulated in the blood. These triglycerides are derived from two origins: exogenous triglycerides absorbed in the gastrointestinal tract and endogenous triglycerides released from the liver. The triglyceride absorption suppressive activity of each test compound was calculated based on the equation shown below by removing the influence of the endogenous triglycerides. In this context, each test compound was separately confirmed to have no influence on the concentration of the endogenous triglycerides.
# Triglyceride absorption suppressive activity (%)=100−[(Triglyceride concentration of each test compound group)−(Triglyceride concentration of Vehicle group 1)]/[(Triglyceride concentration of Vehicle group 2)−(Triglyceride concentration of Vehicle group 1)]×100
inhibition at 0.05 µg/mL (DGAT1 enzyme),SMILES,inhibition in vivo at up to 10 mg/kg (Male C57BL/6N mice)
≥ 50%,"O=C(O)C[C@H]1CC[C@H](OC(=O)N2CCc3cc(NC(=O)NCC4CCCCC4)ccc3C2)CC1 [Example 85, trans-6-(3-cyclohexylmethyl-ureido)-3,4-dihydro-1H-isoquinoline-2-carboxylic acid 4-carboxymethyl-cyclohexyl ester]",≥ 60%
≥ 50%,"Cc1cnc(NC(=O)Nc2ccc3c(c2)CCN(C(=O)O[C@H]2CC[C@H](CC(=O)O)CC2)C3)s1 [Example 95, trans-6-[3-(5-methyl-thiazol-2-yl)-ureido]-3,4-dihydro-1H-isoquinoline-2-carboxylic acid 4-carboxymethyl-cyclohexyl ester]",≥ 60%
≥ 50%,"Cc1ccccc1NC(=O)Nc1ccc2c(c1)CCN(C(=O)O[C@H]1CC[C@H](CC(=O)O)CC1)C2 [Example 77, trans-6-(3-o-tolyl-ureido)-3,4-dihydro-1H-isoquinoline-2-carboxylic acid 4-carboxymethyl-cyclohexyl ester]",≥ 60%
≥ 50%,"Cc1ccc(NC(=O)Nc2ccc3c(c2)CCN(C(=O)O[C@H]2CC[C@H](CC(=O)O)CC2)C3)cc1C [Example 78, trans-6-[3-(3,4-dimethyl-phenyl)-ureido]-3,4-dihydro-1H-isoquinoline-2-carboxylic acid 4-carboxymethyl-cyclohexyl ester]",≥ 60%
≥ 50%,"CC(C(=O)O)C1CCC(CC(=O)N2CCc3cc(NC(=O)Nc4ccccc4F)ccc3C2)CC1 (stereo not drawn) [Example 107, 2-[4-(2-{6-[3-(2-fluoro-phenyl)-ureido]-3,4-dihydro-1H-isoquinolin-2-yl}-2-oxo-ethyl)-cyclohexyl]-propionic acid]",≥ 60%
≥ 50%,"CCOc1ccc(NC(=O)Nc2ccc3c(c2)CCN(C(=O)O[C@H]2CC[C@H](CC(=O)O)CC2)C3)cc1 [Example 80, trans-6-[3-(4-ethoxy-phenyl)-ureido]-3,4-dihydro-1H-isoquinoline-2-carboxylic acid 4-carboxymethyl-cyclohexyl ester]",≥ 60%
≥ 50%,"CC(C(=O)O)[C@H]1CC[C@H](OC(=O)N2CCc3cc(NC(=O)Nc4ccccc4)ccc3C2)CC1 (stereo partly drawn) [Example 105, trans-6-(3-phenyl-ureido)-3,4-dihydro-1H-isoquinoline-2-carboxylic acid 4-(1-carboxy-ethyl)-cyclohexyl ester]",≥ 60%
≥ 50%,"O=C(O)C[C@H]1CC[C@H](OC(=O)N2CCc3cc(NC(=O)Nc4ccc(Cl)cn4)ccc3C2)CC1 [Example 91, trans-6-[3-(5-chloro-pyridin-2-yl)-ureido]-3,4-dihydro-1H-isoquinoline-2-carboxylic acid 4-carboxymethyl-cyclohexyl ester]",≥ 60%
≥ 50%,"CCOc1cccc(NC(=O)Nc2ccc3c(c2)CCN(C(=O)O[C@@H]2CC[C@@H](CC(=O)O)C[C@@H]2C)C3)c1 (relative stereo) [Example 100, 6-[3-(3-ethoxy-phenyl)-ureido]-3,4-dihydro-1H-isoquinoline-2-carboxylic acid t-4-carboxymethyl-c-2-methyl-r-1-cyclohexyl ester]",≥ 60%
≥ 50%,"O=C(O)C[C@H]1CC[C@H](OC(=O)N2CCc3cc(NC(=O)NC4CCCC4)ccc3C2)CC1 [Example 83, trans-6-(3-cyclopentyl-ureido)-3,4-dihydro-1H-isoquinoline-2-carboxylic acid 4-carboxymethyl-cyclohexyl ester]",≥ 60%
≥ 50%,"CC(C(=O)O)[C@H]1CC[C@H](OC(=O)N2CCc3cc(NC(=O)Nc4ccccc4F)ccc3C2)CC1 (stereo partly drawn) [Example 103, trans-6-[3-(2-fluoro-phenyl)-ureido]-3,4-dihydro-1H-isoquinoline-2-carboxylic acid 4-(1-carboxy-ethyl)-cyclohexyl ester]",≥ 60%

# The remaining lines, values behind:
SMILES,inhibition at 0.05 µg/mL (DGAT1 enzyme),inhibition in vivo at up to 10 mg/kg (Male C57BL/6N mice)
"O=C(O)C[C@H]1CC[C@H](OC(=O)N2CCc3cc(NC(=O)Nc4ccccc4)ccc3C2)CC1 [Example 50, trans-6-(3-phenyl-ureido)-3,4-dihydro-1H-isoquinoline-2-carboxylic acid 4-carboxymethyl-cyclohexyl ester]",≥ 50%,≥ 60%
"O=C(O)C[C@H]1CC[C@H](OC(=O)N2CCc3cc(NC(=O)Nc4ccc(C(F)(F)F)cc4)ccc3C2)CC1 [Example 69, trans-6-[3-(4-trifluoromethyl-phenyl)-ureido]-3,4-dihydro-1H-isoquinoline-2-carboxylic acid 4-carboxymethyl-cyclohexyl ester]",≥ 50%,≥ 60%
"CCc1cccc(NC(=O)Nc2ccc3c(c2)CCN(C(=O)O[C@H]2CC[C@H](CC(=O)O)CC2)C3)c1 [Example 70, trans-6-[3-(3-ethyl-phenyl)-ureido]-3,4-dihydro-1H-isoquinoline-2-carboxylic acid 4-carboxymethyl-cyclohexyl ester]",≥ 50%,≥ 60%
"N#Cc1cccc(NC(=O)Nc2ccc3c(c2)CCN(C(=O)O[C@H]2CC[C@H](CC(=O)O)CC2)C3)c1 [Example 74, trans-6-[3-(3-cyano-phenyl)-ureido]-3,4-dihydro-1H-isoquinoline-2-carboxylic acid 4-carboxymethyl-cyclohexyl ester]",≥ 50%,≥ 60%
"O=C(O)C[C@H]1CC[C@H](OC(=O)N2CCc3cc(NC(=O)Nc4ccccc4F)ccc3C2)CC1 [Example 2, trans-6-[3-(2-fluoro-phenyl)-ureido]-3,4-dihydro-1H-isoquinoline-2-carboxylic acid 4-carboxymethyl-cyclohexyl ester]",≥ 50%,≥ 60%
"CCOc1cccc(NC(=O)Nc2ccc3c(c2)CCN(C(=O)O[C@H]2CC[C@H](CC(=O)O)CC2)C3)c1 [Example 20, trans-6-[3-(3-ethoxy-phenyl)-ureido]-3,4-dihydro-1H-isoquinoline-2-carboxylic acid 4-carboxymethyl-cyclohexyl ester]",≥ 50%,≥ 60%
"O=C(O)C[C@H]1CC[C@H](OC(=O)N2CCc3cc(NC(=O)Nc4cc(F)c(F)cc4F)ccc3C2)CC1 [Example 31, trans-6-[3-(2,4,5-trifluoro-phenyl)-ureido]-3,4-dihydro-1H-isoquinoline-2-carboxylic acid 4-carboxymethyl-cyclohexyl ester]",≥ 50%,≥ 60%
"COc1ccccc1NC(=O)Nc1ccc2c(c1)CCN(C(=O)O[C@H]1CC[C@H](CC(=O)O)CC1)C2 [Example 21, trans-6-[3-(2-methoxy-phenyl)-ureido]-3,4-dihydro-1H-isoquinoline-2-carboxylic acid 4-carboxymethyl-cyclohexyl ester]",≥ 50%,≥ 60%
"O=C(O)C[C@H]1CC[C@H](OC(=O)N2CCc3cc(NC(=O)Nc4ccccc4F)ccc3C2)C1 (relative stereo) [Example 7, trans-6-[3-(2-fluoro-phenyl)-ureido]-3,4-dihydro-1H-isoquinoline-2-carboxylic acid 3-carboxymethyl-cyclopentyl ester]",≥ 50%,≥ 60%
"O=C(O)C[C@H]1CC[C@H](OC(=O)N2CCc3cc(Nc4nc5ccccc5o4)ccc3C2)CC1 [Example 25, trans-6-(benzoxazol-2-ylamino)-3,4-dihydro-1H-isoquinoline-2-carboxylic acid 4-carboxymethyl-cyclohexyl ester]",≥ 50%,≥ 60%
